Experiments:
Type in all cases: in vivo
[1] = test system: wheat (Triticum aestivum); test: Test B pre-/postemergence plant response; conditions: 0 to 100 scale, 0 no effect, 100 complete control
Summary of the method: (§1)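 Visual injury scores on a 0–100 scale (100 = complete control) relative to untreated plants, taken about 10 days post-treatment in greenhouse. Treatments were a directed preemergence soil spray and a postemergence spray at one- to two-leaf stage, using surfactant-containing solvent formulation.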

[2] = test system: giant foxtail (Setaria faberii); test: Test B pre-/postemergence plant response; conditions: for Foxtail, Giant plant response rating: 0 to 100 scale (0 no effect, 100 complete control)
Summary of the method: as §1

[3] = test system: corn (Zea mays); test: Test B pre-/postemergence plant response; conditions: 0 to 100 scale, 0 no effect, 100 complete control
Summary of the method: as §1

[4] = test system: pigweed (Amaranthus retroflexus); test: Test B pre-/postemergence plant response; conditions: for Pigweed plant response rating: 0 to 100 scale (0 no effect, 100 complete control)
Summary of the method: as §1

[5] = test system: barnyardgrass (Echinochloa crus-galli); test: Test B pre-/postemergence plant response; conditions: for Barnyardgrass plant response rating: 0 to 100 scale (0 no effect, 100 complete control)
Summary of the method: as §1

[6] = test system: ragweed (common ragweed, Ambrosia elatior); test: Test D pre-/postemergence plant response
Summary of the method: (§2)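 Visual rating, 0–100 scale (0 = no effect, 100 = complete control), versus untreated controls 13 to 15 days after treatment in greenhouse. Preemergence: seeds in loam/sand soil. Postemergence: 2 to 18 cm plants, 1- to 4-leaf stage, peat-based medium. Compounds formulated in non-phytotoxic solvent plus surfactant.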

[7] = test system: large (Lg) crabgrass (Digitaria sanguinalis); test: Test D pre-/postemergence plant response
Summary of the method: as §2

[8] = test system: waterhemp (common waterhemp, Amaranthus rudis); test: Test D pre-/postemergence plant response
Summary of the method: as §2

[9] = test system: corn (Zea mays); test: Test D pre-/postemergence plant response
Summary of the method: as §2

[10] = test system: soybean (Glycine max); test: Test D pre-/postemergence plant response
Summary of the method: as §2

[11] = test system: Italian ryegrass (Lolium multiflorum); test: Test D pre-/postemergence plant response
Summary of the method: as §2

[12] = test system: morningglory (Ipomoea coccinea); test: Test D pre-/postemergence plant response
Summary of the method: as §2

[13] = test system: lambsquarters (Chenopodium album); test: Test D pre-/postemergence plant response
Summary of the method: as §2

[14] = test system: yellow nutsedge (Cyperus esculentus); test: Test D pre-/postemergence plant response
Summary of the method: as §2

[15] = test system: galium (catchweed bedstraw, Galium aparine); test: Test D pre-/postemergence plant response
Summary of the method: as §2

[16] = test system: winter wheat (Triticum aestivum); test: Test D pre-/postemergence plant response
Summary of the method: as §2

[17] = 31 g ai/ha, Postemergence, 0 to 100 scale, 0 no effect, 100 complete control
[18] = 125 g ai/ha, postemergence, 0 to 100 scale, 0 no effect, 100 complete control
[19] = Preemergence, 125 g ai/ha, 0 to 100 scale where 0 is no effect and 100 is complete control
[20] = Postemergence, 16 g ai/ha, scale 0 to 100 (0 no effect, 100 complete control)
[21] = Postemergence, 31 g ai/ha, scale 0 to 100 (0 no effect, 100 complete control)
[22] = Postemergence, 62 g ai/ha, scale 0 to 100, 0 no effect, 100 complete control
[23] = Postemergence, 125 g ai/ha, scale 0 to 100, 0 no effect, 100 complete control
[24] = Preemergence, 16 g ai/ha, scale 0 to 100 (0 no effect, 100 complete control)
[25] = Preemergence, 31 g ai/ha, scale 0 to 100 (0 no effect, 100 complete control)
[26] = Preemergence, 62 g ai/ha, scale 0 to 100 (0 no effect, 100 complete control)

Fc1ccc(Oc2ncc(Cl)cn2)c(-c2cc(C(F)F)on2)c1Cl [Compound 96]
80: Plant response rating, Galium [15, 22]
20: Plant response rating, Corn ([3]; 125 g ai/ha, postemergence) | Plant response rating, Barnyardgrass [5, 19]
50: Plant response rating, Foxtail, Giant [2, 18] | Soybean plant response rating [10, 21]
0: Plant response rating, Wheat ([1]; 31 g ai/ha, Postemergence) | Plant response rating, Wheat ([1]; 125 g ai/ha, postemergence) | Plant response rating, Foxtail, Giant [2, 17] | Plant response rating, Corn ([3]; 31 g ai/ha, Postemergence) | Barnyardgrass plant response rating ([5]; Preemergence, 31 g ai/ha) | Ragweed plant response rating [6, 20] | Ryegrass, Italian plant response rating [11, 20] | Nutsedge, Yellow plant response rating [14, 20] | Wheat plant response rating [16, 20] | Wheat plant response rating [16, 21] | Plant response rating, Wheat [16, 22]
10: Foxtail, Giant plant response rating ([2]; Preemergence, 31 g ai/ha) | Plant response rating, Barnyardgrass [5, 17] | Ragweed plant response rating [6, 21] | Plant response rating, Ragweed [6, 22] | Plant response rating, Crabgrass, Large [7, 23] | Plant response rating, Ryegrass, Italian [11, 22] | Plant response rating, Ryegrass, Italian [11, 23] | Plant response rating, Wheat [16, 23]
95: Waterhemp plant response rating [8, 21] | Plant response rating, Lambsquarters [13, 23]
100: Plant response rating, Pigweed [4, 17] | Plant response rating, Pigweed [4, 18] | Plant response rating, Pigweed [4, 19] | Plant response rating, Waterhemp [8, 23]
90: Pigweed plant response rating ([4]; Preemergence, 31 g ai/ha) | Plant response rating, Lambsquarters [13, 22] | Galium plant response rating [15, 21]
15: Corn plant response rating [9, 21] | Soybean plant response rating [10, 20]
5: Crabgrass, Large plant response rating [7, 20] | Crabgrass, Large plant response rating [7, 21] | Plant response rating, Crabgrass, Large [7, 22] | Corn plant response rating [9, 20] | Plant response rating, Corn [9, 22] | Plant response rating, Corn [9, 23] | Ryegrass, Italian plant response rating [11, 21] | Nutsedge, Yellow plant response rating [14, 21] | Plant response rating, Nutsedge, Yellow [14, 22] | Plant response rating, Nutsedge, Yellow [14, 23]
70: Galium plant response rating [15, 20]
55: Plant response rating, Soybean [10, 22]
35: Plant response rating, Soybean [10, 23]
40: Plant response rating, Foxtail, Giant [2, 19] | Plant response rating, Ragweed [6, 23] | Morningglory plant response rating [12, 21] | Plant response rating, Morningglory [12, 22]
98: Plant response rating, Waterhemp [8, 22] | Plant response rating, Galium [15, 23]
85: Waterhemp plant response rating [8, 20] | Morningglory plant response rating [12, 20]
65: Lambsquarters plant response rating [13, 20] | Lambsquarters plant response rating [13, 21]
30: Plant response rating, Barnyardgrass [5, 18] | Plant response rating, Morningglory [12, 23]

COc1cccc(Oc2ncc(Cl)cn2)c1-c1cc(C(F)(F)F)no1 [Compound 104]
25: Plant response rating, Ragweed [6, 25] | Plant response rating (scale 0 to 100), Soybean ([10]; Preemergence, 125 g ai/ha) | Plant response rating, Soybean [10, 26] | Plant response rating (scale 0 to 100), Morningglory ([12]; Preemergence, 125 g ai/ha) | Plant response rating, Morningglory [12, 26]
40: Foxtail, Giant plant response rating ([2]; Preemergence, 31 g ai/ha) | Plant response rating, Ragweed [6, 24]
5: Plant response rating (scale 0 to 100), Ryegrass, Italian ([11]; Preemergence, 125 g ai/ha) | Plant response rating, Morningglory [12, 24] | Plant response rating, Morningglory [12, 25] | Plant response rating (scale 0 to 100), Wheat ([16]; Preemergence, 125 g ai/ha) | Plant response rating, Wheat [16, 26]
20: Plant response rating, Foxtail, Giant [2, 17] | Barnyardgrass plant response rating ([5]; Preemergence, 31 g ai/ha) | Plant response rating, Soybean [10, 25]
70: Plant response rating (scale 0 to 100), Galium ([15]; Preemergence, 125 g ai/ha)
60: Plant response rating, Barnyardgrass [5, 18] | Plant response rating (scale 0 to 100), Ragweed ([6]; Preemergence, 125 g ai/ha)
30: Plant response rating, Corn ([3]; 125 g ai/ha, postemergence)
0: Plant response rating, Wheat ([1]; 31 g ai/ha, Postemergence) | Plant response rating (scale 0 to 100), Corn ([9]; Preemergence, 125 g ai/ha) | Plant response rating, Corn [9, 24] | Plant response rating, Corn [9, 25] | Plant response rating, Corn [9, 26] | Plant response rating, Ryegrass, Italian [11, 24] | Plant response rating, Ryegrass, Italian [11, 25] | Plant response rating, Ryegrass, Italian [11, 26] | Plant response rating (scale 0 to 100), Nutsedge, Yellow ([14]; Preemergence, 125 g ai/ha) | Plant response rating, Nutsedge, Yellow [14, 24] | Plant response rating, Nutsedge, Yellow [14, 25] | Plant response rating, Nutsedge, Yellow [14, 26] | Plant response rating, Wheat [16, 24] | Plant response rating, Wheat [16, 25]
55: Plant response rating, Ragweed [6, 26]
98: Plant response rating, Crabgrass, Large [7, 26]
100: Plant response rating, Foxtail, Giant [2, 19] | Plant response rating, Pigweed [4, 19] | Plant response rating (scale 0 to 100), Crabgrass, Large ([7]; Preemergence, 125 g ai/ha) | Plant response rating (scale 0 to 100), Waterhemp ([8]; Preemergence, 125 g ai/ha) | Plant response rating, Waterhemp [8, 24] | Plant response rating, Waterhemp [8, 25] | Plant response rating, Waterhemp [8, 26]
85: Plant response rating, Crabgrass, Large [7, 25]
80: Plant response rating, Foxtail, Giant [2, 18] | Pigweed plant response rating ([4]; Preemergence, 31 g ai/ha) | Plant response rating, Barnyardgrass [5, 19] | Plant response rating, Lambsquarters [13, 25] | Plant response rating, Galium [15, 25]
90: Plant response rating, Pigweed [4, 17] | Plant response rating, Pigweed [4, 18] | Plant response rating (scale 0 to 100), Lambsquarters ([13]; Preemergence, 125 g ai/ha) | Plant response rating, Lambsquarters [13, 26] | Plant response rating, Galium [15, 24]
65: Plant response rating, Crabgrass, Large [7, 24] | Plant response rating, Lambsquarters [13, 24]
10: Plant response rating, Wheat ([1]; 125 g ai/ha, postemergence) | Plant response rating, Corn ([3]; 31 g ai/ha, Postemergence) | Plant response rating, Barnyardgrass [5, 17] | Plant response rating, Soybean [10, 24]
75: Plant response rating, Galium [15, 26]

— patent publication US10131652B2, “Pyrimidinyloxy benzene derivatives as herbicides” (E. I. DU PONT DE NEMOURS AND COMPANY, priority 2014, dated 2018)
